Values of other authors, collected in US20190117655A1, “Treatment of Biliary Duct Cancer” (ASLAN Pharmaceuticals PTE LTD, priority 2015, published 2019).

System: advanced or metastatic biliary tract cancer
Conditions: capecitabine monotherapy, similar populations; cited from earlier work

Q: With CCCCCOC(=O)Nc1nc(=O)n([C@@H]2O[C@H](C)[C@@H](O)[C@H]2O)cc1F [capecitabine] as the molecule, how does the “Historical response rate, ORR” value read?
A: 6-8%
